≈ marks a conversion by molar mass, not a printed value.
Legend:
Type in all cases: functional
[1] = tested on: Enterococcus faecium; assay: In vitro antibacterial activity against Enterococcus faecium C6301 (E.f.2).
[2] = tested on: Enterococcus faecium; assay: In vitro antibacterial activity against vancomycin-resistant Enterococcus faecium C6487 (VRE).
[3] = tested on: Enterococcus faecalis; assay: In vitro antibacterial activity against Enterococcus faecalis C6291 (E.f.1).
[4] = tested on: Staphylococcus epidermidis; assay: In vitro antibacterial activity against Staphylococcus epidermis (S.e.1) […].
[5] = tested on: Staphylococcus epidermidis; assay: In vitro antibacterial activity against Staphylococcus epidermis (S.e.2) C2235.
[6] = tested on: Staphylococcus aureus; assay: In vitro antibacterial activity against ciprofloxacin-resistant Staphylococcus aureus (CRSA) C6043.
[7] = tested on: Staphylococcus aureus; assay: In vitro antibacterial activity against Staphylococcus aureus (S. a.) ATCC 29213.
[8] = tested on: Staphylococcus aureus; assay: In vitro antibacterial activity against methicillin-resistant Staphylococcus aureus (MRSA) C6068.
[9] = tested on: Staphylococcus aureus; assay: In vitro antibacterial activity against methicillin-susceptible Staphylococcus aureus (MSSA) C2214.
[10] = tested on: Streptococcus pyogenes; assay: In vitro antibacterial activity against Streptococcus pyogenes ATCC 8668 (S.p.1).
[11] = tested on: Streptococcus pyogenes; assay: In vitro antibacterial activity against Streptococcus pyogenes C6003 (S.p.2).

SMILES | MIC [1] [µg/mL] | MIC [2] [µg/mL] | MIC [3] [µg/mL] | MIC [4] [µg/mL] | MIC [5] [µg/mL] | MIC [6] [µg/mL] | MIC [7] [µg/mL] | MIC [8] [µg/mL] | MIC [9] [µg/mL] | MIC [10] [µg/mL] | MIC [11] [µg/mL]
CC(=O)NC[C@H]1CN(c2ccc(N3CCN(C(=O)CO)CC3)c(F)c2)C(=O)O1 [EPEREZOLID] | 1 (≈ 2.54 µM) | 1 (≈ 2.54 µM) | 2 (≈ 5.07 µM) | 0.5 (≈ 1.27 µM) | 1 (≈ 2.54 µM) | 2 (≈ 5.07 µM) | 2 (≈ 5.07 µM) | 1 (≈ 2.54 µM) | 2 (≈ 5.07 µM) | 0.25 (≈ 0.634 µM) | 0.5 (≈ 1.27 µM)
CC(=O)NC[C@H]1CN(c2ccc(N3CCN(C(=O)c4cccs4)CC3)c(F)c2)C(=O)O1 | 2 (≈ 4.48 µM) | 2 (≈ 4.48 µM) | 2 (≈ 4.48 µM) | 0.5 (≈ 1.12 µM) | 1 (≈ 2.24 µM) | 2 (≈ 4.48 µM) | 2 (≈ 4.48 µM) | 1 (≈ 2.24 µM) | 2 (≈ 4.48 µM) | 1 (≈ 2.24 µM) | 1 (≈ 2.24 µM)
CC(=O)NC[C@H]1CN(c2ccc(N3CCN(Cc4cc(-c5ccc(Cl)cc5)no4)CC3)c(F)c2)C(=O)O1 | 32 (≈ 60.6 µM) | 32 (≈ 60.6 µM) | > 32 | 16 (≈ 30.3 µM) | 32 (≈ 60.6 µM) | > 32 | > 32 | 16 (≈ 30.3 µM) | 32 (≈ 60.6 µM) | 4 (≈ 7.58 µM) | 4 (≈ 7.58 µM)
CC(=O)NC[C@H]1CN(c2ccc(N3CCN(C(=O)c4cc(C)no4)CC3)c(F)c2)C(=O)O1 | 2 (≈ 4.49 µM) | 2 (≈ 4.49 µM) | 4 (≈ 8.98 µM) | 0.5 (≈ 1.12 µM) | 1 (≈ 2.24 µM) | 4 (≈ 8.98 µM) | 4 (≈ 8.98 µM) | 2 (≈ 4.49 µM) | 8 (≈ 18 µM) | 0.5 (≈ 1.12 µM) | 0.5 (≈ 1.12 µM)
CC(=O)NC[C@H]1CN(c2ccc(N3CCN(C(=O)c4cc(-c5csnn5)no4)CC3)c(F)c2)C(=O)O1 | 1 (≈ 1.94 µM) | 1 (≈ 1.94 µM) | 1 (≈ 1.94 µM) | 0.5 (≈ 0.97 µM) | 1 (≈ 1.94 µM) | 2 (≈ 3.88 µM) | 2 (≈ 3.88 µM) | 1 (≈ 1.94 µM) | 2 (≈ 3.88 µM) | 0.5 (≈ 0.97 µM) | 0.5 (≈ 0.97 µM)
CC(=O)NC[C@H]1CN(c2ccc(N3CCN(C(=O)c4cc(COC(N)=O)no4)CC3)c(F)c2)C(=O)O1 | 1 (≈ 1.98 µM) | 1 (≈ 1.98 µM) | 1 (≈ 1.98 µM) | 0.5 (≈ 0.991 µM) | 0.5 (≈ 0.991 µM) | 2 (≈ 3.96 µM) | 2 (≈ 3.96 µM) | 1 (≈ 1.98 µM) | 2 (≈ 3.96 µM) | 0.5 (≈ 0.991 µM) | 0.5 (≈ 0.991 µM)
CC(=O)NC[C@H]1CN(c2ccc(N3CCOCC3)c(F)c2)C(=O)O1 [LINEZOLID] | 1 (≈ 2.96 µM) | 2 (≈ 5.93 µM) | – | 1 (≈ 2.96 µM) | 1 (≈ 2.96 µM) | – | – | 1 (≈ 2.96 µM) | – | 0.5 (≈ 1.48 µM) | 0.5 (≈ 1.48 µM)
CC(=O)NC[C@H]1CN(c2ccc(N3CCN(C(=O)c4cc(C(N)=O)no4)CC3)c(F)c2)C(=O)O1 | 1 (≈ 2.11 µM) | 1 (≈ 2.11 µM) | 1 (≈ 2.11 µM) | 0.5 (≈ 1.05 µM) | 0.5 (≈ 1.05 µM) | 2 (≈ 4.22 µM) | 2 (≈ 4.22 µM) | 1 (≈ 2.11 µM) | 2 (≈ 4.22 µM) | 0.25 (≈ 0.527 µM) | 0.25 (≈ 0.527 µM)
COc1cc(CN2CCN(c3ccc(N4C[C@H](CNC(C)=O)OC4=O)cc3F)CC2)on1 | 4 (≈ 8.94 µM) | 4 (≈ 8.94 µM) | 8 (≈ 17.9 µM) | 2 (≈ 4.47 µM) | 4 (≈ 8.94 µM) | 8 (≈ 17.9 µM) | 8 (≈ 17.9 µM) | 4 (≈ 8.94 µM) | 8 (≈ 17.9 µM) | 1 (≈ 2.23 µM) | 1 (≈ 2.23 µM)
COc1cccc(-c2cc(CN3CCN(c4ccc(N5C[C@H](CNC(C)=O)OC5=O)cc4F)CC3)on2)c1 | 4 (≈ 7.64 µM) | 1 (≈ 1.91 µM) | 8 (≈ 15.3 µM) | 4 (≈ 7.64 µM) | 4 (≈ 7.64 µM) | 2 (≈ 3.82 µM) | 4 (≈ 7.64 µM) | 4 (≈ 7.64 µM) | 4 (≈ 7.64 µM) | 4 (≈ 7.64 µM) | 1 (≈ 1.91 µM)
COc1ccc(-c2cc(CN3CCN(c4ccc(N5C[C@H](CNC(C)=O)OC5=O)cc4F)CC3)on2)cc1OC | 4 (≈ 7.23 µM) | 2 (≈ 3.61 µM) | 4 (≈ 7.23 µM) | 2 (≈ 3.61 µM) | 4 (≈ 7.23 µM) | 4 (≈ 7.23 µM) | 4 (≈ 7.23 µM) | 2 (≈ 3.61 µM) | 4 (≈ 7.23 µM) | 2 (≈ 3.61 µM) | 1 (≈ 1.81 µM)
CC(=O)NC[C@H]1CN(c2ccc(N3CCN(Cc4cc(-c5ccc(Oc6ccccc6)cc5)no4)CC3)c(F)c2)C(=O)O1 | 4 (≈ 6.83 µM) | 4 (≈ 6.83 µM) | 4 (≈ 6.83 µM) | 2 (≈ 3.42 µM) | 4 (≈ 6.83 µM) | 8 (≈ 13.7 µM) | 8 (≈ 13.7 µM) | 4 (≈ 6.83 µM) | 8 (≈ 13.7 µM) | 1 (≈ 1.71 µM) | 1 (≈ 1.71 µM)
CC(=O)NC[C@H]1CN(c2ccc(N3CCN(C(=O)c4cc(COC(=O)N(C)C)no4)CC3)c(F)c2)C(=O)O1 | 2 (≈ 3.76 µM) | 2 (≈ 3.76 µM) | 2 (≈ 3.76 µM) | 1 (≈ 1.88 µM) | 2 (≈ 3.76 µM) | 4 (≈ 7.51 µM) | 4 (≈ 7.51 µM) | 2 (≈ 3.76 µM) | 4 (≈ 7.51 µM) | 0.5 (≈ 0.939 µM) | 0.5 (≈ 0.939 µM)
CC(=O)NC[C@H]1CN(c2ccc(N3CCN(C(=O)c4nccs4)CC3)c(F)c2)C(=O)O1 | 4 (≈ 8.94 µM) | 4 (≈ 8.94 µM) | 4 (≈ 8.94 µM) | 1 (≈ 2.23 µM) | 2 (≈ 4.47 µM) | 4 (≈ 8.94 µM) | 4 (≈ 8.94 µM) | 2 (≈ 4.47 µM) | 4 (≈ 8.94 µM) | 1 (≈ 2.23 µM) | 1 (≈ 2.23 µM)
CC(=O)NC[C@H]1CN(c2ccc(N3CCN(C(=O)c4cc(Cl)no4)CC3)c(F)c2)C(=O)O1 | 2 (≈ 4.29 µM) | 2 (≈ 4.29 µM) | 2 (≈ 4.29 µM) | 1 (≈ 2.15 µM) | 1 (≈ 2.15 µM) | 2 (≈ 4.29 µM) | 4 (≈ 8.59 µM) | 1 (≈ 2.15 µM) | 4 (≈ 8.59 µM) | 1 (≈ 2.15 µM) | 1 (≈ 2.15 µM)
CC(=O)NC[C@H]1CN(c2ccc(N3CCN(C(=O)c4cc(OCCF)no4)CC3)c(F)c2)C(=O)O1 | 1 (≈ 2.03 µM) | 1 (≈ 2.03 µM) | 2 (≈ 4.05 µM) | 1 (≈ 2.03 µM) | 2 (≈ 4.05 µM) | 2 (≈ 4.05 µM) | 4 (≈ 8.11 µM) | 2 (≈ 4.05 µM) | 2 (≈ 4.05 µM) | 0.5 (≈ 1.01 µM) | 0.5 (≈ 1.01 µM)
CN[C@H](CC(C)C)C(=O)N[C@H]1C(=O)N[C@@H](CC(N)=O)C(=O)N[C@H]2C(=O)N[C@H]3C(=O)N[C@H](C(=O)N[C@H](C(=O)O)c4cc(O)cc(O)c4-c4cc3ccc4O)[C@H](O)c3ccc(c(Cl)c3)Oc3cc2cc(c3O[C@@H]2O[C@H](CO)[C@@H](O)[C@H](O)[C@H]2O[C@H]2C[C@](C)(N)[C@H](O)[C@H](C)O2)Oc2ccc(cc2Cl)[C@H]1O [VANCOMYCIN] | – | > 32 | 1 (≈ 0.69 µM) | 0.5 (≈ 0.345 µM) | – | – | – | – | – | 0.25 (≈ 0.173 µM) | 0.25 (≈ 0.173 µM)
CC(=O)NC[C@H]1CN(c2ccc(N3CCN(C(=O)c4cc(C(=O)O)no4)CC3)c(F)c2)C(=O)O1 | > 32 | – | > 32 | > 32 | > 32 | – | > 32 | – | > 32 | 16 (≈ 33.7 µM) | 16 (≈ 33.7 µM)
CC(=O)NC[C@H]1CN(c2ccc(N3CCN(C(=O)c4cc(O)no4)CC3)c(F)c2)C(=O)O1 | > 32 | – | > 32 | > 32 | > 32 | – | > 32 | – | > 32 | 16 (≈ 35.8 µM) | 16 (≈ 35.8 µM)
CC(=O)NC[C@H]1CN(c2ccc(N3CCN(Cc4cc(/C=C/c5ccccc5)no4)CC3)c(F)c2)C(=O)O1 | 8 (≈ 15.4 µM) | 8 (≈ 15.4 µM) | 16 (≈ 30.8 µM) | 2 (≈ 3.85 µM) | 16 (≈ 30.8 µM) | – | > 32 | 32 (≈ 61.6 µM) | > 32 | 2 (≈ 3.85 µM) | 2 (≈ 3.85 µM)

Source: ChEMBL document CHEMBL1131977, “Synthesis and in vitro activity of new oxazolidinone antibacterial agents having substituted isoxazoles” (1999)
